“Also recorded” adds a separate entry of the source. No end group written: not given here.
Key:
[1] = tested on: SMAD1/5/8 phosphorylation; assay: Western blot of p-SMAD1/5/8 in Hep3B cells pre-treated with TNF-alpha and exposed to BMP6; assay type: cell-based, human
Procedure: Hep3B cells were exposed to TNF-alpha at 20 ng/mL for 48 hours before the addition of BMP6 at an end concentration of 2 nM. Lysates were harvested at either 1 h or 18 h post addition of BMP6. Briefly, cells were trypsinised and lysed for 20 min on ice in NP40 1% buffer supplemented with protease inhibitors (Sigma) at 1:500 and phosphatase inhibitor cocktail 2 (Sigma) at 1:100. The lysates were spun at 4° C., 13,000 rpm for 5 minutes and the supernatants stored at −80° C. until the blot was performed. Briefly, the protein content of the lysates was normalised using the BCA assay (Pierce) and run on 12% SDS-PAGE mini gels. Gels were blotted onto nitrocellulose membranes (GE Healthcare) and then blocked for 1 hour at room temperature in PBS containing 5% (w/v) milk. Membranes were then probed overnight at 4° C. in TBS-TWEEN containing 5% (w/v) BSA with the following primary antibodies: mouse anti-beta-actin (loading control) (Sigma), mouse anti-rabbit IgG (negative control) (Dako), rabbit anti-pSMAD1/5/8 (Cell Signalling), or rabbit anti-H.Pylori (negative control) (Dako). […] Membranes were developed using ECL reagent (GE Healthcare), films were scanned using an AlphaScan (Alpha Innotech) running Epson Scan software (Seiko Epson), and band intensities were determined using ImageQuant5.2 (Molecular Dynamics).

[2] = tested on: HAMP mRNA; assay: HAMP mRNA induction by BMP6, BMP9 or IL-6 in hepatoma cells pre-treated with TNF-alpha (qRT-PCR); assay type: cell-based, human; details: TNF-alpha treatment
Procedure: (§1) RNA extraction and cDNA synthesis were carried out by using either RNeasy kits with QIAshredder homogenization (both Qiagen) and the High capacity RNA-to-cDNA kit (Applied Biosystems), or by using the Cells-to-Ct kit (Applied Biosystems), all according to the manufacturers' protocols. qRT-PCR reactions were performed on an Applied Biosystems Fast 7500 Real-Time PCR System (Applied Biosystems). Gene expression was assessed using inventoried Taqman Gene Expression Assays (Applied Biosystems) (see table 4 for assay codes) with Taqman Gene Expression Master Mix (Applied Biosystems) following the manufacturer's instructions. cDNA was diluted in Nuclease-Free Water (Ambion) to achieve a final concentration of 1-3 ng/uL. Samples were run in duplicate and gene expression levels were quantified relative to glyceraldehyde-3-phosphate dehydrogenase (GAPDH) mRNA expression using the delta Ct method; in some cases relative expression was then quantified further by normalizing to the untreated controls (delta-delta Ct method).
(§2) The hepatoma cell line Hep3B were maintained in MMEM supplemented with 10% foetal calf serum (PAA), 2 mM glutamine, 100 U/mL penicillin, 0.1 mg/mL streptomycin (all Sigma). HuH7 and HuH7.5 cells were cultured in DMEM supplemented as above. HuH7.5 cells infected at a MOI of 0.02 or hepatoma cells pre-treated for 48 h with TNF-alpha at 20 ng/mL were incubated overnight with titrations of human recombinant BMP6 or BMP9, and in the case of TNF-alpha treated cells IL-6 (all R&D Systems). Titrations of TNF-alpha were applied for 48 h prior to RNA extraction. A neutralizing anti-TNF-alpha antibody (clone 1825), (R&D Systems) supplemented the culture medium of HCV infected HuH7.5 cells at 0.2 μg/mL and was added at each sub culture from 2 days post infection to the end of the infection course. Uninfected cells were cultured and treated in parallel with the HCV infected cells.

[3] = tested on: BMP/SMAD signalling pathway; assay: HJV, SMAD6 and SMAD7 mRNA in uninfected hepatoma (Hep3B) cells incubated with TNF-alpha (qRT-PCR); assay type: cell-based, human
Procedure: as §1, §2

[4] = tested on: HCV (Jc1 HCV strain); assay: Antiviral experiments: HCV-RNA in supernatants and cells of HCV-infected HuH7.5 cells (qRT-PCR); assay type: cell-based, hepatitis C virus
Text: The Jc1 HCV strain was produced as described previously (Reference 20). Briefly, HuH7.5 cells were transfected with Jc1 RNA by electroporation and supernatants harvested 14-20 days post transfection. HuH7.5 cells were infected at a multiplicity of infection (MOI) of 0.02 unless otherwise stated. Infection was allowed to proceed for 9-11 days at which point infection was greater than 90% as determined by immunofluorescence (also described in Reference 20).
5 day time course: cells infected as described above at a MOI of 0.02 for 2 h were plated and then immediately treated with BMP6 at the doses stated in the figures for the duration of the infection. 10 day time course: cells infected for 2 h were plated and incubated for 3 days. Cells were sub-cultured and BMP6 added at the stated doses. Additional doses of the same concentration were applied at further sub-culturing to maintain the dose. For both time courses, IFNa (PBL Biomedical Laboratories) was added at 1000 U overnight either at day 4 (5 day time course) or day 9 (10 day time course). Supernatant RNA extraction was performed using QIAamp viral RNA extraction kit and total cellular RNA was extracted using RNeasy kit (both Qiagen). cDNA was then transcribed using the Superscript III Reverse transcriptase (Invitrogen) (random hexamers), all according to the manufacturers' protocols. HCV-RNA levels were measured using qRT-PCR in a LightCycler 480 Real-Time PCR System (Roche). cDNA at 10-100 ng/uL was amplified using RC1 (5′ […] 3′ (SEQ ID NO:3)) and RC21(5′ […] 3′ (SEQ ID NO:4)) primers. Each reaction was run in duplicate. HCV-RNA levels were quantified using a standard curve derived from HCV Jc1 cDNA.

[5] = tested on: Influenza A Virus Strain PR8; assay type: cell-based; details: infected HuH7 cells mixed 1:10 with uninfected, cultured 24 hours; compared with interferon alpha and beta; FIG. 2
[6] = 1 uM hepcidin peptide added 3 days after HCV inoculation, a further 7 days, FIG. 11

TNF-alpha
inhibition of SMAD1/5/8 phosphorylation stimulated by BMP6 ([1]; 18 hr exposure to BMP6, TNF-alpha pre-treatment): ~35% | p-SMAD1/5/8 after incubation with BMP6 ([1]; Hep3B cells, BMP6 for both 1 hr and 18 hr, FIG. 9a): reduced | mean suppression of HAMP mRNA upregulation in response to BMP6 ([2]; FIG. 9b): 16.8 fold | mean suppression of HAMP mRNA upregulation in response to BMP9 ([2]; FIG. 9c): 4.3 fold | hepcidin response to IL-6 ([2]; FIG. 10): blunted | HJV mRNA levels ([3]; FIG. 5e): reduced | SMAD6 mRNA ([3]; FIG. 5f): increased | SMAD7 mRNA ([3]; FIG. 5f): increased

hepcidin: hepcidin peptide, the iron regulatory hormone encoded by HAMP, added exogenously at 1 uM (DTHFPICIFCCGCCHRSKCGMCCKT; ends and bridges not checked; cysteine pairing not given here; UniProt P81172 60-84, looked up)
HCV RNA in cells [4, 6]: not significantly altered | HCV RNA in supernatant [4, 6]: not significantly altered | effect on HCV replication ([4]; FIG. 11): No specific effect

B1: BMP6: human recombinant BMP6 (R&D Systems), a bone morphogenetic protein that stimulates the BMP/SMAD signalling pathway (protein, UniProt P22004 375-513, looked up)
Bone morphogenetic protein 6: SASSRRRQQSRNRSTQSQDVARVSSASDYNSSELKTACRKHELYVSFQDLGWQDWIIAPKGYAANYCDGECSFPLNAHMNATNHAIVQTLVHLMNPEYVPKPCCAPTKLNAISVLYFDDNSNVILKKYRNMVVRACGCH
spread of the Influenza virus (level of haemagglutinin) [5]: restricts spread of the Influenza virus | viral RNA in supernatants, established infection ([4]; 2 nM BMP6 added after 3 days of HCV replication, measured after a further 7 days): reduced modestly | viral RNA in supernatants, established infection ([4]; 6 nM BMP6 added after 3 days of HCV replication, measured after a further 7 days): reduced modestly | culture supernatant HCV RNA after 5 days ([4]; 5 days post-infection, BMP6 at all doses for the duration of the infection, IFNa overnight, FIG. 12b): significantly reduced; also recorded: significantly lower | viral RNA in supernatants, established infection ([4]; 10 days post-infection, 18 nM BMP6 for 7 days or IFNa overnight, FIG. 12c): lower | cellular HCV RNA, established infection ([4]; 10 days post-infection, 18 nM BMP6 for 7 days or IFNa overnight, FIG. 12d): significantly reduced; also recorded: lower | accumulation of HCV RNA in culture supernatants over time ([4]; BMP6 added immediately after infecting HuH7.5 cells, 5 day time course, FIG. 12a): severely restricted; also recorded: reduced | suppression of HCV growth ([4]; in vitro live virus model, over 5 days): over 90%
